According to the supplement of paper PMC12533247:

What was measured:
[1] = tested on: primary dermal fibroblasts; experiment: % change in live cells vs DMSO control; higher = less cytotoxic; conditions: time (h post treatment): 48
Procedure: (§1)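 Cytotoxicity in uninfected 2D primary donor keratinocytes (20 h post treatment) and fibroblasts (48 h post treatment), measured with NucSpot live/dead dyes on IncuCyte. Live cells are normalised to the 0.2% DMSO control and shown as % change. Three biological replicates for each of donors 3, 4 and 5.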

primary keratinocytes = experiment: as above; conditions: time (h post treatment): 20
Procedure: as §1

[2] = tested on: HSV-1 K26-GFP infected primary human skin cells; experiment: % change of HSV-1 GFP signal vs untreated infected cells; higher = less antiviral inhibition; conditions: cell type: primary dermal fibroblasts, time (h post infection): 48
Procedure: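 2D primary donor-derived dermal fibroblasts infected with GFP-HSV-1 K26 at MOI 1, treated 1 h later with compound dilutions and read at 48 hpi on IncuCyte. GFP integrated intensity is normalised to mock-infected and untreated infected wells (% change; -100 = full inhibition).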

[3] = tested on: HSV-1 K26-GFP infected 3D skin equivalent; experiment: % change of tdTomato fibroblast signal relative to infected DMSO control; higher = higher signal (negative = inhibition / toxicity); conditions: time (h post infection): 48
Procedure: (§2)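 Triplicate dose-response (0.04 to 10 uM) of 11 top compounds in 3D bioprinted skin equivalents (submerged and ALI models) infected with GFP-HSV-1 K26 at MOI 0.1 and fixed at 48 hpi. GFP (virus) and tdTomato (fibroblast viability) signals are normalised to per-plate controls.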

[4] = tested on: HSV-1 K26-GFP infected 3D skin equivalent; experiment: % activity on HSV-1 GFP signal (0 = infected DMSO control, -100 = uninfected control); higher = higher signal (negative = inhibition / toxicity); conditions: time (h post infection): 48
Procedure: as §2

Cc1cccc(C)c1N(CC(=O)Nc1ccc(-c2ncon2)cc1)C(=O)C1CCS(=O)(=O)CC1 [Amenamevir]
Conditions	% activity on HSV-1 GFP signal [%]	% change in live cells [%]	% change of HSV-1 GFP signal [%]	% change of tdTomato fibroblast signal [%]
[1], 0.082305 µM, donor: 3	–	-6.67	–	–
[1], 0.082305 µM, donor: 4	–	5	–	–
[1], 0.082305 µM, donor: 5	–	2.33	–	–
[1], 0.246914 µM, donor: 3	–	-7	–	–
[1], 0.246914 µM, donor: 4	–	4.67	–	–
[1], 0.246914 µM, donor: 5	–	4.33	–	–
[1], 0.740741 µM, donor: 3	–	-7.33	–	–
[1], 0.740741 µM, donor: 4	–	2.67	–	–
[1], 0.740741 µM, donor: 5	–	3	–	–
[1], 2.22222 µM, donor: 3	–	-6	–	–
[1], 2.22222 µM, donor: 4	–	5	–	–
[1], 2.22222 µM, donor: 5	–	0	–	–
[1], 6.66667 µM, donor: 3	–	-6	–	–
[1], 6.66667 µM, donor: 4	–	6.67	–	–
[1], 6.66667 µM, donor: 5	–	-3	–	–
[1], 20 µM, donor: 3	–	-6.33	–	–
[1], 20 µM, donor: 4	–	4.67	–	–
[1], 20 µM, donor: 5	–	-4.67	–	–
[1], 60 µM, donor: 3	–	-6.33	–	–
[1], 60 µM, donor: 4	–	0	–	–
[1], 60 µM, donor: 5	–	-23.3	–	–
[2], 0.001 µM, donor: 3	–	–	-1.82	–
[2], 0.001 µM, donor: 4	–	–	-1.13	–
[2], 0.003 µM, donor: 3	–	–	-1.99	–
[2], 0.003 µM, donor: 4	–	–	-8.69	–
[2], 0.0091 µM, donor: 3	–	–	-11	–
[2], 0.0091 µM, donor: 4	–	–	-24.4	–
[2], 0.0274 µM, donor: 3	–	–	-15.9	–
[2], 0.0274 µM, donor: 4	–	–	-37.9	–
[2], 0.0823 µM, donor: 3	–	–	-29.7	–
[2], 0.0823 µM, donor: 4	–	–	-61.9	–
[2], 0.2469 µM, donor: 3	–	–	-63.1	–
[2], 0.2469 µM, donor: 4	–	–	-76.9	–
[2], 0.7407 µM, donor: 3	–	–	-89.6	–
[2], 0.7407 µM, donor: 4	–	–	-84.4	–
[2], 2.2222 µM, donor: 3	–	–	-98.8	–
[2], 2.2222 µM, donor: 4	–	–	-94.5	–
[2], 6.6667 µM, donor: 3	–	–	-99.52	–
[2], 6.6667 µM, donor: 4	–	–	-99	–
[2], 20 µM, donor: 3	–	–	-99.36	–
[2], 20 µM, donor: 4	–	–	-99.59	–
[3], 0.041152 µM, model: ALI	–	–	–	0.354
[3], 0.041152 µM, model: submerged	–	–	–	12
[3], 0.123457 µM, model: ALI	–	–	–	-2.14
[3], 0.123457 µM, model: submerged	–	–	–	-5.09
[3], 0.37037 µM, model: ALI	–	–	–	-5.49
[3], 0.37037 µM, model: submerged	–	–	–	-8.61
[3], 1.111111 µM, model: ALI	–	–	–	-6.26
[3], 1.111111 µM, model: submerged	–	–	–	-5
[3], 3.33333 µM, model: ALI	–	–	–	-5.93
[3], 3.33333 µM, model: submerged	–	–	–	2.99
[3], 10 µM, model: ALI	–	–	–	-8.92
[3], 10 µM, model: submerged	–	–	–	5.91
[4], 0.041152 µM, model: ALI	-20.3	–	–	–
[4], 0.041152 µM, model: submerged	2.22	–	–	–
[4], 0.123457 µM, model: ALI	-40.4	–	–	–
[4], 0.123457 µM, model: submerged	-17.6	–	–	–
[4], 0.37037 µM, model: ALI	-99.3	–	–	–
[4], 0.37037 µM, model: submerged	-61.9	–	–	–
[4], 1.111111 µM, model: ALI	-108	–	–	–
[4], 1.111111 µM, model: submerged	-84.6	–	–	–
[4], 3.33333 µM, model: ALI	-107	–	–	–
[4], 3.33333 µM, model: submerged	-89.2	–	–	–
[4], 10 µM, model: ALI	-112	–	–	–
[4], 10 µM, model: submerged	-85.3	–	–	–
primary keratinocytes, 0.082305 µM, donor: 3	–	-5	–	–
primary keratinocytes, 0.082305 µM, donor: 4	–	8.33	–	–
primary keratinocytes, 0.082305 µM, donor: 5	–	-7.67	–	–
primary keratinocytes, 0.246914 µM, donor: 3	–	-8.33	–	–
primary keratinocytes, 0.246914 µM, donor: 4	–	-12.7	–	–
primary keratinocytes, 0.246914 µM, donor: 5	–	-7	–	–
primary keratinocytes, 0.740741 µM, donor: 3	–	-12	–	–
primary keratinocytes, 0.740741 µM, donor: 4	–	-6	–	–
primary keratinocytes, 0.740741 µM, donor: 5	–	-5.67	–	–
primary keratinocytes, 2.22222 µM, donor: 3	–	-3.33	–	–
primary keratinocytes, 2.22222 µM, donor: 4	–	-3.33	–	–
primary keratinocytes, 2.22222 µM, donor: 5	–	-5.33	–	–
primary keratinocytes, 6.66667 µM, donor: 3	–	1.67	–	–
primary keratinocytes, 6.66667 µM, donor: 4	–	-36.7	–	–
primary keratinocytes, 6.66667 µM, donor: 5	–	-1.67	–	–
primary keratinocytes, 20 µM, donor: 3	–	-32.7	–	–
primary keratinocytes, 20 µM, donor: 4	–	-42	–	–
primary keratinocytes, 20 µM, donor: 5	–	5.67	–	–
primary keratinocytes, 60 µM, donor: 3	–	-70.3	–	–
primary keratinocytes, 60 µM, donor: 4	–	-63.3	–	–
primary keratinocytes, 60 µM, donor: 5	–	-5	–	–

COc1ccc(-c2nc(N3CCOCC3)c3sc(CN(C)c4ncc(C(=O)NO)cn4)cc3n2)cn1 [Fimepinostat]
Conditions	% activity on HSV-1 GFP signal [%]	% change in live cells [%]	% change of HSV-1 GFP signal [%]	% change of tdTomato fibroblast signal [%]
[1], 0.082305 µM, donor: 3	–	-29.3	–	–
[1], 0.082305 µM, donor: 4	–	-13	–	–
[1], 0.082305 µM, donor: 5	–	6.67	–	–
[1], 0.246914 µM, donor: 3	–	-34.3	–	–
[1], 0.246914 µM, donor: 4	–	-33.3	–	–
[1], 0.246914 µM, donor: 5	–	-8.67	–	–
[1], 0.740741 µM, donor: 3	–	-41.3	–	–
[1], 0.740741 µM, donor: 4	–	-44	–	–
[1], 0.740741 µM, donor: 5	–	-23.3	–	–
[1], 2.22222 µM, donor: 3	–	-56	–	–
[1], 2.22222 µM, donor: 4	–	-67.3	–	–
[1], 2.22222 µM, donor: 5	–	-56.3	–	–
[1], 6.66667 µM, donor: 3	–	-61	–	–
[1], 6.66667 µM, donor: 4	–	-60.3	–	–
[1], 6.66667 µM, donor: 5	–	-60	–	–
[1], 20 µM, donor: 3	–	-64.7	–	–
[1], 20 µM, donor: 4	–	-56.3	–	–
[1], 20 µM, donor: 5	–	-68	–	–
[1], 60 µM, donor: 3	–	-75	–	–
[1], 60 µM, donor: 4	–	-60.3	–	–
[1], 60 µM, donor: 5	–	-79.3	–	–
[2], 0.003 µM, donor: 3	–	–	27.2	–
[2], 0.003 µM, donor: 4	–	–	-1.5	–
[2], 0.0091 µM, donor: 3	–	–	32.4	–
[2], 0.0091 µM, donor: 4	–	–	-0.607	–
[2], 0.0274 µM, donor: 3	–	–	30.4	–
[2], 0.0274 µM, donor: 4	–	–	-1.06	–
[2], 0.0823 µM, donor: 3	–	–	27.5	–
[2], 0.0823 µM, donor: 4	–	–	3.49	–
[2], 0.2469 µM, donor: 3	–	–	29.4	–
[2], 0.2469 µM, donor: 4	–	–	-2.47	–
[2], 0.7407 µM, donor: 3	–	–	21.4	–
[2], 0.7407 µM, donor: 4	–	–	-9.92	–
[2], 2.2222 µM, donor: 3	–	–	14.6	–
[2], 2.2222 µM, donor: 4	–	–	-5.85	–
[2], 6.6667 µM, donor: 3	–	–	11.3	–
[2], 6.6667 µM, donor: 4	–	–	-11.4	–
[2], 20 µM, donor: 3	–	–	8.87	–
[2], 20 µM, donor: 4	–	–	-9.02	–
[2], 60 µM, donor: 3	–	–	7.95	–
[2], 60 µM, donor: 4	–	–	-4.24	–
[3], 0.041152 µM, model: ALI	–	–	–	-7.82
[3], 0.041152 µM, model: submerged	–	–	–	12.3
[3], 0.123457 µM, model: ALI	–	–	–	-14
[3], 0.123457 µM, model: submerged	–	–	–	9.59
[3], 0.37037 µM, model: ALI	–	–	–	-3.36
[3], 0.37037 µM, model: submerged	–	–	–	12.7
[3], 1.111111 µM, model: ALI	–	–	–	-5.66
[3], 1.111111 µM, model: submerged	–	–	–	8.55
[3], 3.33333 µM, model: ALI	–	–	–	-20.2
[3], 3.33333 µM, model: submerged	–	–	–	-1.39
[3], 10 µM, model: ALI	–	–	–	-11
[3], 10 µM, model: submerged	–	–	–	-3.36
[4], 0.041152 µM, model: ALI	-85.1	–	–	–
[4], 0.041152 µM, model: submerged	2.37	–	–	–
[4], 0.123457 µM, model: ALI	-97.4	–	–	–
[4], 0.123457 µM, model: submerged	6.63	–	–	–
[4], 0.37037 µM, model: ALI	-79.6	–	–	–
[4], 0.37037 µM, model: submerged	-1.58	–	–	–
[4], 1.111111 µM, model: ALI	-64.2	–	–	–
[4], 1.111111 µM, model: submerged	-31.5	–	–	–
[4], 3.33333 µM, model: ALI	-78.3	–	–	–
[4], 3.33333 µM, model: submerged	-75.6	–	–	–
[4], 10 µM, model: ALI	-88.6	–	–	–
[4], 10 µM, model: submerged	-87.4	–	–	–
primary keratinocytes, 0.082305 µM, donor: 3	–	-23.3	–	–
primary keratinocytes, 0.082305 µM, donor: 4	–	-5.33	–	–
primary keratinocytes, 0.082305 µM, donor: 5	–	-8	–	–
primary keratinocytes, 0.246914 µM, donor: 3	–	-39.7	–	–
primary keratinocytes, 0.246914 µM, donor: 4	–	-20.7	–	–
primary keratinocytes, 0.246914 µM, donor: 5	–	-13.7	–	–
primary keratinocytes, 0.740741 µM, donor: 3	–	-38.7	–	–
primary keratinocytes, 0.740741 µM, donor: 4	–	-34.3	–	–
primary keratinocytes, 0.740741 µM, donor: 5	–	-38	–	–
primary keratinocytes, 2.22222 µM, donor: 3	–	-41.3	–	–
primary keratinocytes, 2.22222 µM, donor: 4	–	-59	–	–
primary keratinocytes, 2.22222 µM, donor: 5	–	-58.7	–	–
primary keratinocytes, 6.66667 µM, donor: 3	–	-42.3	–	–
primary keratinocytes, 6.66667 µM, donor: 4	–	-79.3	–	–
primary keratinocytes, 6.66667 µM, donor: 5	–	-67	–	–
primary keratinocytes, 20 µM, donor: 3	–	-76	–	–
primary keratinocytes, 20 µM, donor: 4	–	-99.7	–	–
primary keratinocytes, 20 µM, donor: 5	–	-80.7	–	–
primary keratinocytes, 60 µM, donor: 3	–	-95.3	–	–
primary keratinocytes, 60 µM, donor: 4	–	-94.33	–	–
primary keratinocytes, 60 µM, donor: 5	–	-95.33	–	–
